This note sets out measurements from patent US20020161194A1, “Cannine androgen receptor” (priority 2000, published 2002).

The test system of the assay is canine androgen receptor. The conditions noted are these: DHT 10^−7 M, 24 hr, control A293S cells lacking the canine AR.

From the text: Control plates were transfected with all plasmids except canine AR. […] Luciferase activity was normalized for transfection efficiency using β-galactosidase activity.
Control plates were transfected with all the same plasmids except canine AR. […] Cells were harvested 24 hr after compound addition and analyzed for luciferase activity (Luciferase Assay System, Promega, Madison, Wis.) and β-galactosidase activity (Galacto-Star, Tropix, Inc., Bedford, Mass.). Data is expressed as fold induction of luciferase activity as compared to vehicle, following normalization for transfection efficiency using β-galactosidase activity.

Take `C[C@]12CCC(=O)C[C@@H]1CC[C@@H]1[C@@H]2CC[C@]2(C)[C@@H](O)CC[C@@H]12` [DHT, 5α-androstan-17β-ol-3-one]: the “induction of luciferase activity compared to vehicle” value is “no induction”.
